US10449245B2 (priority 2014, dated 2019)
Several values for one entry are separate records, joined by “and”; a condition that tells them apart may be missing. Equal entries are not always repeated.

Assays:
[1] = test system: HIV-1; test: Plasma HIV-1 RNA by transcription mediated amplification (TMA) NAT screen, REDUC Part A; format: in vivo, human; conditions: for TMA assay, Percent positive: share of subjects positive; for TMA assay, Percent positive / TMA assay, presence of HIV RNA: romidepsin 5 mg/m^2 i.v. days 0, 7, 14; for TMA assay, presence of HIV RNA: individual subjects 1101, 1102, 1103, 1105, 1106, 1107 = c1-c6
[2] = test system: latently infected cell lines and primary T cells; conditions: cited from earlier work
[3] = human, in vivo
Procedure: (§1) Part A of the clinical study contained three phases. First, a pre-treatment phase of 2-4 weeks (visit 1-visit 2a) to confirm the stability of the latent HIV-1 reservoir and determine baseline HIV-1 T lymphocyte specific immunity. Second, a viral reactivation phase of 3 weeks (visit 2 to visit 7) consisting of one cycle of romidepsin infusions at a dosing of 5 mg/m^2 administered intravenously over a 4 hour period. De-escalation down to 2.5 mg/m^2 was planned in case of dose-limiting toxicity was observed. Romidepsin was infused on days 0, 7, and 14. Third, a post-activation phase of ˜9 weeks (visit 8 to visit 11) to assess the effect of romidepsin on the size of latent HIV-1I reservoir.
The primary objective of this part of the study was to evaluate the safety and tolerability of romidepsin at a reduced dosing of 5 mg/m^2 in HIV-infected patients.
The primary endpoint of this part was safety and tolerability; evaluation as measured by adverse events (AE), adverse reactions (AR), serious adverse events (SAE), serious adverse reactions (SAR), serious unexpected adverse reactions (SUSAR).

[4] = test system: HIV-1; test: HIV transcription as cell-associated unspliced HIV-1 RNA in CD4+ T cells (digital droplet PCR), REDUC Part A; format: in vivo, human; conditions: for CA US HIV RNA: individual subjects 1101, 1102, 1103, 1105, 1106, 1107 = c1-c6; for CA US HIV RNA / CA US HIV RNA, Mean: romidepsin 5 mg/m^2 i.v. days 0, 7, 14; for CA US HIV RNA, Mean: mean of subjects
Procedure: as §1, with “First, a pre-treatment phase of 2-4 weeks (visit 1-visit 2a) to confirm the stability of the latent HIV-1 reservoir and determine baseline HIV-1 T lymphocyte specific immunity.” left out
HIV transcription was measured as copies of cell-associated unspliced HIV-1 RNA/106 CD4+ T cells using digital droplet PCR. CD4+ T-cells were isolated from PBMCs using Miltenyi Biotec negative bead separation kit (CD4 T cell isolation, #130-096-533) as described with LD separation columns, lysed (Lysis buffer from Qiagen DNA/RNA extraction kit), and stored ad −80° C. until extraction of RNA and DNA (Allprep isolation kit, Qiagen). Reverse transcription, amplification and quantitation of cell-associated unspliced HIV RNA from HIV patients was performed as follows. In summary, HIV unspliced RNA was detected on the BioRad QX100 droplet digital platform using a defined primer/probe set and related to total cell input by quantitation of the IPO8 (Importin 8) and TBP (Tata Binding Protein) gene transcription. A mixture of 11.5 μl patient extracted mRNA in nuclease-free dH, 1 μl 10 mM dNTP U1240 (Promega), 0.5 μl 3 μg/μl Random hexamers (Applied Biosystems) and 0.5 μl of 0.5 μg/μl Oligo(dT)12-18 Primer (Invitrogen) was prepared, incubated at 65° C. for 5 min, and then immediately on ice for 5 min. First-strand cDNA production was performed by adding a mixture of 4.0 μl 5× First Strand Buffer (Invitrogen), 1.0 μl 0.1M DTT (Invitrogen), 0.5 μl RNAseOUT RNAse inhibitor (40 U/μl, Invitrogen), 1.0 μl Superscript III Reverse Transcriptase (200 U/μl, Invitrogen) for a total reaction volume of 20 μl and incubating at 42° C. for 45 min, then 80° C. for 15 min in a PCR machine. The reaction was held at 4° C. or on ice until performing the downstream assay. […] To adjust for the total cellular input in each sample, relative copy numbers were normalized to two human endogenous control genes TBP PL (VIC) assay ID: Hs00183533_m1 and IPO8 (FAM) assay ID: Hs00427620_m1 (TaqMan gene expression assay, LifeTechnologies, Denmark). All HIV RT samples were run in six replicates while the reference genes were assayed in duplicate. The PCR reaction mixture was loaded into the BioRad QX-100 emulsification device fractionating each sample into 20,000 nanoliter-sized droplets following the manufacturer's instructions. PCR cycling conditions were as follows: 95° C. for 10 min, followed by 40 cycles of a 30 second denaturation at 95° C. followed by a 59° C. extension for 60 seconds and a final 10 minutes at 98° C. After cycling droplets were subsequently read automatically by the QX100 droplet reader (BioRad) and the data was analyzed with the QuantaSoft™ analysis software (BioRad).

[5] = visit 1 (day −21, pre-treatment)
[6] = visit 2A (day 0, pre-treatment)

## C/C=C1\NC(=O)[C@H]2CSSCC/C=C/[C@H](CC(=O)N[C@H](C(C)C)C(=O)N2)OC(=O)[C@H](C(C)C)NC1=O [romidepsin, (1S,4S,7Z,10S,16E,21R)-7-ethylidene-4,21-bis(1-methylethyl)-2-oxa-12,13-dithia-5,8,20,23-tetraazabicyclo[8.7.6]tricos-16-ene-3,6,9,19,22-pentone]
[1]; Visit 1 (day −21, pre-treatment)
  TMA assay, Percent positive: 50%
[1]; Visit 2A (day 0, pre-treatment)
  TMA assay, Percent positive: 50%
[1]; Visit 2B (day 0 + 4 h)
  TMA assay, Percent positive: 67%
[1]; Visit 3 (day 1)
  TMA assay, Percent positive: 83%
[1]; Visit 4 (day 3)
  TMA assay, Percent positive: 83%
[1]; Visit 5A (day 7)
  TMA assay, Percent positive: 50%
[1]; Visit 5B (day 7 + 4 h)
  TMA assay, Percent positive: 100%
[1]; Visit 6 (day 10)
  TMA assay, Percent positive: 100%
[1]; Visit 7A (day 14)
  TMA assay, Percent positive: 50%
[1]; Visit 7B (day 14 + 4 h)
  TMA assay, Percent positive: 67%
[1]; Visit 8 (day 17)
  TMA assay, Percent positive: 100%
[1]; Visit 9 (day 21)
  TMA assay, Percent positive: 33%
[1]; post-infusion time-points compared with baseline
  Plasma HIV-1 RNA detection by transcription-mediated amplification assay: detected more frequently
[1]; [5]
  TMA assay, presence of HIV RNA: 1 (3×) and 0 (3×)
[1]; [6]
  TMA assay, presence of HIV RNA: 1 (3×) and 0 (3×)
[1]; visit 2B (day 0 + 4 h)
  TMA assay, presence of HIV RNA: 1 (4×) and 0 (2×)
[1]; visit 3 (day 1)
  TMA assay, presence of HIV RNA: 1 (5×) and 0
[1]; visit 4 (day 3)
  TMA assay, presence of HIV RNA: 1 (5×) and 0
[1]; visit 5A (day 7)
  TMA assay, presence of HIV RNA: 1 (3×) and 0 (3×)
[1]; visit 5B (day 7 + 4 h)
  TMA assay, presence of HIV RNA: 1
[1]; visit 6 (day 10)
  TMA assay, presence of HIV RNA: 1
[1]; visit 7A (day 14)
  TMA assay, presence of HIV RNA: 1 (3×) and 0 (3×)
[1]; visit 7B (day 14 + 4 h)
  TMA assay, presence of HIV RNA: 1 (4×) and 0 (2×)
[1]; visit 8 (day 17)
  TMA assay, presence of HIV RNA: 1
[1]; visit 9 (day 21)
  TMA assay, presence of HIV RNA: 0 (4×) and 1 (2×)
[2]
  activation of HIV-1 expression: potently activates HIV-1 expression
[3]
  grade II AEs: Two
[4]; 5 mg/m^2 romidepsin, patients on cART
  HIV reactivation: successfully able to reactivate HIV in 6 patients
[4]; after third infusion, p=0.03, Wilcoxon
  HIV-1 transcription (cell-associated un-spliced HIV-1 RNA), fold range increase from baseline: 2.4-5.0 fold
[4]; as a result of romidepsin infusion
  cell-associated un-spliced HIV RNA, change: significantly increased
[4]; [5]
  CA US HIV RNA: 5.4 HIV RNA copies/10^6 CD4+ T cel and 19.7 HIV RNA copies/10^6 CD4+ T cel and 9.7 HIV RNA copies/10^6 CD4+ T cel and 4.8 HIV RNA copies/10^6 CD4+ T cel and 15.9 HIV RNA copies/10^6 CD4+ T cel and 8.7 HIV RNA copies/10^6 CD4+ T cel
  CA US HIV RNA, Mean: 10.7 HIV RNA copies/10^6 CD4+ T cel
[4]; [6]
  CA US HIV RNA: 13.3 HIV RNA copies/10^6 CD4+ T cel and 16.8 HIV RNA copies/10^6 CD4+ T cel and 7.4 HIV RNA copies/10^6 CD4+ T cel and 14.5 HIV RNA copies/10^6 CD4+ T cel and 4.5 HIV RNA copies/10^6 CD4+ T cel
  CA US HIV RNA, Mean: 11.3 HIV RNA copies/10^6 CD4+ T cel
[4]; visit 2B (day 0 + 4 h)
  CA US HIV RNA: 23.0 HIV RNA copies/10^6 CD4+ T cel and 21.7 HIV RNA copies/10^6 CD4+ T cel and 15.7 HIV RNA copies/10^6 CD4+ T cel and 6.2 HIV RNA copies/10^6 CD4+ T cel and 18.7 HIV RNA copies/10^6 CD4+ T cel and 7.6 HIV RNA copies/10^6 CD4+ T cel
  CA US HIV RNA, Mean: 15.5 HIV RNA copies/10^6 CD4+ T cel
[4]; visit 3 (day 1)
  CA US HIV RNA: 16.7 HIV RNA copies/10^6 CD4+ T cel and 33.8 HIV RNA copies/10^6 CD4+ T cel and 9.5 HIV RNA copies/10^6 CD4+ T cel and 7.3 HIV RNA copies/10^6 CD4+ T cel and 29.4 HIV RNA copies/10^6 CD4+ T cel and 10.3 HIV RNA copies/10^6 CD4+ T cel
  CA US HIV RNA, Mean: 17.8 HIV RNA copies/10^6 CD4+ T cel
[4]; visit 4 (day 3)
  CA US HIV RNA: 26.4 HIV RNA copies/10^6 CD4+ T cel and 36.2 HIV RNA copies/10^6 CD4+ T cel and 7.5 HIV RNA copies/10^6 CD4+ T cel and 6.8 HIV RNA copies/10^6 CD4+ T cel and 12.1 HIV RNA copies/10^6 CD4+ T cel and 6.6 HIV RNA copies/10^6 CD4+ T cel
  CA US HIV RNA, Mean: 15.9 HIV RNA copies/10^6 CD4+ T cel
[4]; visit 5A (day 7)
  CA US HIV RNA: 12.5 HIV RNA copies/10^6 CD4+ T cel and 13.7 HIV RNA copies/10^6 CD4+ T cel and 11.3 HIV RNA copies/10^6 CD4+ T cel and 7.6 HIV RNA copies/10^6 CD4+ T cel and 18.9 HIV RNA copies/10^6 CD4+ T cel and 6.6 HIV RNA copies/10^6 CD4+ T cel
  CA US HIV RNA, Mean: 11.8 HIV RNA copies/10^6 CD4+ T cel
[4]; visit 5B (day 7 + 4 h)
  CA US HIV RNA: 33.7 HIV RNA copies/10^6 CD4+ T cel and 43.3 HIV RNA copies/10^6 CD4+ T cel and 24.8 HIV RNA copies/10^6 CD4+ T cel and 24.0 HIV RNA copies/10^6 CD4+ T cel and 45.2 HIV RNA copies/10^6 CD4+ T cel
  CA US HIV RNA, Mean: 34.2 HIV RNA copies/10^6 CD4+ T cel
[4]; visit 6 (day 10)
  CA US HIV RNA: 21.3 HIV RNA copies/10^6 CD4+ T cel and 29.0 HIV RNA copies/10^6 CD4+ T cel and 10.4 HIV RNA copies/10^6 CD4+ T cel and 9.1 HIV RNA copies/10^6 CD4+ T cel and 14.4 HIV RNA copies/10^6 CD4+ T cel and 7.9 HIV RNA copies/10^6 CD4+ T cel
  CA US HIV RNA, Mean: 15.3 HIV RNA copies/10^6 CD4+ T cel
[4]; visit 7A (day 14)
  CA US HIV RNA: 13.3 HIV RNA copies/10^6 CD4+ T cel and 24.2 HIV RNA copies/10^6 CD4+ T cel and 9.9 HIV RNA copies/10^6 CD4+ T cel and 6.0 HIV RNA copies/10^6 CD4+ T cel and 18.1 HIV RNA copies/10^6 CD4+ T cel
  CA US HIV RNA, Mean: 14.3 HIV RNA copies/10^6 CD4+ T cel
[4]; visit 7B (day 14 + 4 h)
  CA US HIV RNA: 36.5 HIV RNA copies/10^6 CD4+ T cel and 51.9 HIV RNA copies/10^6 CD4+ T cel and 21.0 HIV RNA copies/10^6 CD4+ T cel and 76.0 HIV RNA copies/10^6 CD4+ T cel and 20.5 HIV RNA copies/10^6 CD4+ T cel
  CA US HIV RNA, Mean: 41.2 HIV RNA copies/10^6 CD4+ T cel
[4]; visit 8 (day 17)
  CA US HIV RNA: 17.4 HIV RNA copies/10^6 CD4+ T cel and 17.8 HIV RNA copies/10^6 CD4+ T cel and 4.2 HIV RNA copies/10^6 CD4+ T cel and 14.9 HIV RNA copies/10^6 CD4+ T cel and 8.9 HIV RNA copies/10^6 CD4+ T cel
  CA US HIV RNA, Mean: 12.7 HIV RNA copies/10^6 CD4+ T cel
[4]; visit 9 (day 21)
  CA US HIV RNA: 16.4 HIV RNA copies/10^6 CD4+ T cel and 19.0 HIV RNA copies/10^6 CD4+ T cel and 4.6 HIV RNA copies/10^6 CD4+ T cel and 5.2 HIV RNA copies/10^6 CD4+ T cel and 11.1 HIV RNA copies/10^6 CD4+ T cel
  CA US HIV RNA, Mean: 11.3 HIV RNA copies/10^6 CD4+ T cel
[4]; visit 10 (day 56)
  CA US HIV RNA: 17.9 HIV RNA copies/10^6 CD4+ T cel and 25.0 HIV RNA copies/10^6 CD4+ T cel and 7.6 HIV RNA copies/10^6 CD4+ T cel and 6.2 HIV RNA copies/10^6 CD4+ T cel and 16.8 HIV RNA copies/10^6 CD4+ T cel and 9.3 HIV RNA copies/10^6 CD4+ T cel
  CA US HIV RNA, Mean: 13.8 HIV RNA copies/10^6 CD4+ T cel
[4]; visit 11 (day 84)
  CA US HIV RNA: 22.0 HIV RNA copies/10^6 CD4+ T cel and 32.7 HIV RNA copies/10^6 CD4+ T cel and 11.2 HIV RNA copies/10^6 CD4+ T cel and 8.0 HIV RNA copies/10^6 CD4+ T cel and 35.1 HIV RNA copies/10^6 CD4+ T cel and 12.2 HIV RNA copies/10^6 CD4+ T cel
  CA US HIV RNA, Mean: 20.2 HIV RNA copies/10^6 CD4+ T cel
